# Data from patent US20110071171A1, “2H- PYRIMIDO [2, 1-B] QUINAZOLIN-2-ONE DERIVATIVES AND THEIR USE AS PLATELET ANTI-AGGREGATIVE AGENTS” (Shire LLC, priority 2008, published 2011).
# Key:
# [1] = system: human phosphodiesterase III (PDE III); test: PDE III inhibition; type: biochemical; conditions: more potent than anagrelide
# From the text: In early volunteer trials, the most frequently reported adverse effects AEs other than headache were palpitations, postural dizziness and nausea. During patient studies, the most frequently reported drug-related AEs were headache, palpitations, oedema/fluid retention, nausea/vomiting, diarrhea, dizziness and abdominal pain. These effects are all likely to arise from the secondary, cardiovascular pharmacology associated with anagrelide resulting from its inhibitory effects on human phosphodiesterase III (PDE III). […] Inhibition of myocardial PDE III leads to positive inotropy (increasing of the force of contractions of the heart), increased chronotropy (increase in heart rate), and peripheral vasodilatation. Such cardiovascular manifestations of this inhibition are typically seen with the classical positive inotropes, milrinone and enoximone, and exploited in the short-term acute treatment of congestive heart failure. However, in the treatment of a so-called silent disease (i.e., asymptomatic) such as ET, the cardiovascular side-effects of palpitations and tachycardia associated with anagrelide limit its utility and a significant proportion of patients—reportedly between 25 and 50%—fail to tolerate the drug during long term treatment.
# The PDE III inhibitory properties of anagrelide are quite distinct from its platelet lowering anti-megakaryocytic effects. […]
# [2] = system: TPO-induced megakaryocytopoiesis; conditions: cited from earlier work
# [3] = Pharmacokinetics in humans; type: in vivo, human; conditions: after anagrelide treatment
# From the text: The PDE III inhibitory properties of anagrelide are quite distinct from its platelet lowering anti-megakaryocytic effects. Indeed studies have shown no correlation between potency as a PDE III inhibitor and anti-megakaryocytic effects for anagrelide and its principal pharmacologically active metabolite, 3-hydroxyanagrelide (3-OH anagrelide or 3-HA, formerly known as SPD604 or BCH24426). […] Anagrelide's active metabolite, 3-HA, is present in vivo in amounts greatly exceeding those of the parent drug with typical exposures being 2-3 fold greater. Thus by implication 3-OH anagrelide is likely to be a major contributor to the pharmacological actions of the drug.
# The metabolism of anagrelide generally proceeds extremely rapidly, resulting in a less than ideal pharmacokinetic profile of the drug. […] This, combined with the side-effects profile, can lead to poor patient compliance. Furthermore, anagrelide undergoes a large first pass effect (>50%) leading to considerable intersubject variation in achieved exposures and, therefore, potentially variable drug response. Also, exposure to the pharmacologically active metabolite varies dramatically between patients since its formation is dependent on CYP1A, an enzyme whose expression is highly dependent on exposure to inducing agents such as cigarette smoke. […]
# [4] = cited from earlier work
# [5] = system: erythroid or myelomonocytic differentiation; conditions: stimulated by erythropoietin or granulocyte-macrophage colony-stimulating factor; cited from earlier work
# platelet count = conditions: patients with thrombocythemia secondary to a myeloproliferative disorder; cited from earlier work
# [6] = target: human phosphodiesterase III (PDE III); conditions: cited from earlier work
Compound,potency as PDE III inhibitor relative to anagrelide [1],potency in inhibition of megakaryocytopoiesis relative to anagrelide [2],in vivo exposure relative to parent drug [3],half-life ([4]; typical) [h],effect on erythroid or myelomonocytic differentiation [5],time to complete response (platelet count ≦600×10^9/L) (platelet count) [weeks],"IC50 ([2]; in vitro, human megakaryocytopoiesis, read-out: estimated IC50, inhibition of TPO-induced megakaryocytopoiesis) [nM]",first pass effect ([4]; in vivo) [%],IC50 [6] [nM]
O=C1NC2=Nc3ccc(Cl)c(Cl)c3CN2C1O (stereo not shown) [3-hydroxyanagrelide],over 40 fold,no more potent than the parent drug,2-3 fold,2.5,–,–,–,–,–
"O=C1CN2Cc3c(ccc(Cl)c3Cl)N=C2N1 [Anagrelide, 6,7-dichloro-1,5-dihydroimidazo[2,1-b]-quinazolin-2(3H)-one]",–,–,–,–,does not affect,4 to 12,~26,> 50,~29
Cc1[nH]c(=O)c(C#N)cc1-c1ccncc1 [milrinone],–,–,–,–,–,–,–,–,170 to 350
